From ChEMBL document CHEMBL4804286, “3-amino-4-(4-(4 (dimethylcarbamoyl) phenyl)-1,4-diazepan-1-yl) thieno [2,3-b] pyridine-2-carboxamide for use in cancer therapy and formulations comprising the same” (2020)
Values joined by “and” are separate entries in the source; they are usually repeats but may differ in a detail not shown here. Equal entries are not always repeated.

Tests used:
Set-up in all cases: scale not given: the % may be the effect or the level left
[1] = biological target: Phosphatidylinositol 4-phosphate 3-kinase C2 domain-containing subunit beta (Homo sapiens) (UniProt O00750); test: Inhibition of human PIK3CB assessed as percent of control at 2000 nM by KINOMEscan assay relative to control
[2] = biological target: Myosin-IIIb (Homo sapiens) (UniProt Q8WXR4); test: Inhibition of human MYO3B assessed as percent of control at 2000 nM by KINOMEscan assay relative to control
[3] = biological target: Serine/threonine-protein kinase SBK1 (Homo sapiens) (UniProt Q52WX2); test: Inhibition of human SBK1 assessed as percent of control at 2000 nM by KINOMEscan assay relative to control
Chain of Serine/threonine-protein kinase SBK1 (Homo sapiens) (Q52WX2 whole entry): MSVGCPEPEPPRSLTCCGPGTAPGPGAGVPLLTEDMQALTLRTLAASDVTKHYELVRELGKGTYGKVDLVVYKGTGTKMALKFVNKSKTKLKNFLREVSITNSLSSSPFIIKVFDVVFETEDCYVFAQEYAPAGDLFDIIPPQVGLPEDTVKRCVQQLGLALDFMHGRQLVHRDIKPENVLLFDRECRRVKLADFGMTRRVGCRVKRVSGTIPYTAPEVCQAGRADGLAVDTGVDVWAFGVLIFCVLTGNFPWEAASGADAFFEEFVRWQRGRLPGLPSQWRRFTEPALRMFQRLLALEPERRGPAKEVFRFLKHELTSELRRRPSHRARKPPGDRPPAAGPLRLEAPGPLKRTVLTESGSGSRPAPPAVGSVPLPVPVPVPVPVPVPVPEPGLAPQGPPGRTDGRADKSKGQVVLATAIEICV

[4] = biological target: cGMP-dependent protein kinase 1 (Homo sapiens) (UniProt Q13976); test: Inhibition of human PRKG1 assessed as percent of control at 2000 nM by KINOMEscan assay relative to control
[5] = system: Mast/stem cell growth factor receptor Kit (Homo sapiens), P10721 [D816V]; test: Inhibition of human KIT D816V mutant assessed as percent of control at 2000 nM by KINOMEscan assay relative to control
[6] = biological target: Mitogen-activated protein kinase 12 (Homo sapiens) (UniProt P53778); test: Inhibition of human p38-gamma assessed as percent of control at 2000 nM by KINOMEscan assay relative to control
Chain of Mitogen-activated protein kinase 12 (Homo sapiens) (P53778 whole entry): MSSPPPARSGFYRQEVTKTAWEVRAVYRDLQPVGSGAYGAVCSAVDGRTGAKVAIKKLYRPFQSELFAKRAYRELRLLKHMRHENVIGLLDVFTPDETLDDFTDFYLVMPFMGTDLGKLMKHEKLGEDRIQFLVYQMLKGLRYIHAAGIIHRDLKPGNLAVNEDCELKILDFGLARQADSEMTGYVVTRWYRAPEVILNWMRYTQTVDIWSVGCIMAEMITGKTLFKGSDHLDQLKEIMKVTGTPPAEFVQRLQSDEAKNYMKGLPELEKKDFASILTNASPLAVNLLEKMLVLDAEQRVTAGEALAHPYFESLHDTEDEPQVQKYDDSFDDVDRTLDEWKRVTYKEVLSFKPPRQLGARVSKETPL

[7] = biological target: Proto-oncogene tyrosine-protein kinase receptor Ret (Homo sapiens) (UniProt P07949); test: Inhibition of human RET assessed as percent of control at 2000 nM by KINOMEscan assay relative to control
[8] = biological target: Non-receptor tyrosine-protein kinase TYK2 (Homo sapiens) (UniProt P29597); test: Inhibition of human TYK2 JH1 catalytic domain assessed as percent of control at 2000 nM by KINOMEscan assay relative to control
[9] = biological target: Ribosomal protein S6 kinase alpha-5 (Homo sapiens) (UniProt O75582); test: Inhibition of human N-terminal RPS6KA5 kinase domain 1 assessed as percent of control at 2000 nM by KINOMEscan assay relative to control
[10] = system: Leucine-rich repeat serine/threonine-protein kinase 2 (Homo sapiens), Q5S007 [G2019S]; test: Inhibition of human LRRK2 G2019S mutant assessed as percent of control at 2000 nM by KINOMEscan assay relative to control
[11] = biological target: Proto-oncogene tyrosine-protein kinase ROS (Homo sapiens) (UniProt P08922); test: Inhibition of human ROS1 assessed as percent of control at 2000 nM by KINOMEscan assay relative to control
[12] = biological target: Cyclin-dependent kinase 4 (Homo sapiens) (UniProt P11802); test: Inhibition of human CDK4 assessed as percent of control at 2000 nM by KINOMEscan assay relative to control
Chain of Cyclin-dependent kinase 4 (Homo sapiens) (P11802 whole entry): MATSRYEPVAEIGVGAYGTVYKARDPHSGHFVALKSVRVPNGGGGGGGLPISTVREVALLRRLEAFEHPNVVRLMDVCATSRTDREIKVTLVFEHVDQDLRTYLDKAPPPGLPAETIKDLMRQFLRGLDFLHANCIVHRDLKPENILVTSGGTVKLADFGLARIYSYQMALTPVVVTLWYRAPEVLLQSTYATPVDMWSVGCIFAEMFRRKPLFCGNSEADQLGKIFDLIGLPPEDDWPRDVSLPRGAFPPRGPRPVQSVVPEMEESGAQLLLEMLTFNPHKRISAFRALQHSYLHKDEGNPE

[13] = biological target: Interleukin-1 receptor-associated kinase 4 (Homo sapiens) (UniProt Q9NWZ3); test: Inhibition of human IRAK4 assessed as percent of control at 2000 nM by KINOMEscan assay relative to control
[14] = biological target: Protein odd-skipped-related 1 (Homo sapiens) (UniProt Q8TAX0); test: Inhibition of human OSR1 assessed as percent of control at 2000 nM by KINOMEscan assay relative to control
[15] = biological target: Serine/threonine-protein kinase Nek6 (Homo sapiens) (UniProt Q9HC98); test: Inhibition of human NEK6 assessed as percent of control at 2000 nM by KINOMEscan assay relative to control
Chain of Serine/threonine-protein kinase Nek6 (Homo sapiens) (Q9HC98 whole entry): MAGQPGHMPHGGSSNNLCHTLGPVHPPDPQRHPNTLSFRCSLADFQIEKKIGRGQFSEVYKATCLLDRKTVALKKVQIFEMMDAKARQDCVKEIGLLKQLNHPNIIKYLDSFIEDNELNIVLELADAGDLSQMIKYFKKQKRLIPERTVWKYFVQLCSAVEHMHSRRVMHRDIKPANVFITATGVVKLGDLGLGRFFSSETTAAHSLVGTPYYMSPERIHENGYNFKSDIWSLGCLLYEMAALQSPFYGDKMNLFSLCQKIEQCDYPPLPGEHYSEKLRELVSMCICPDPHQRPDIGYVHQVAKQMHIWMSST

[16] = biological target: Calcium/calmodulin-dependent protein kinase type 1 (Homo sapiens) (UniProt Q14012); test: Inhibition of human CAMK1 assessed as percent of control at 2000 nM by KINOMEscan assay relative to control
[17] = biological target: cAMP-dependent protein kinase catalytic subunit beta (Homo sapiens) (UniProt P22694); test: Inhibition of human PKAC-beta assessed as percent of control at 2000 nM by KINOMEscan assay relative to control
[18] = biological target: Cyclin-dependent kinase 2 homolog (Plasmodium falciparum (isolate K1 / Thailand)) (UniProt Q07785); test: Inhibition of Plasmodium falciparum PFPK5 assessed as percent of control at 2000 nM by KINOMEscan assay relative to control
Chain of Cyclin-dependent kinase 2 homolog (Plasmodium falciparum (isolate K1 / Thailand)) (Q07785 whole entry): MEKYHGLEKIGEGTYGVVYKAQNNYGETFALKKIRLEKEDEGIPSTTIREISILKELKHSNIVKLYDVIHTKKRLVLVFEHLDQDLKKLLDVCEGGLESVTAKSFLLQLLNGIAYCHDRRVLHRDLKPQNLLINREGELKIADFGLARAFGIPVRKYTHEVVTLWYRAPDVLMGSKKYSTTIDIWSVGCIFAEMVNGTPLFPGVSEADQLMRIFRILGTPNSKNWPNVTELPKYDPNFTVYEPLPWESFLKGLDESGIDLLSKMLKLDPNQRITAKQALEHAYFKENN

[19] = biological target: Serine/threonine-protein kinase PAK 1 (Homo sapiens) (UniProt Q13153); test: Inhibition of human PAK1 assessed as percent of control at 2000 nM by KINOMEscan assay relative to control
Chain of Serine/threonine-protein kinase PAK 1 (Homo sapiens) (Q13153 whole entry): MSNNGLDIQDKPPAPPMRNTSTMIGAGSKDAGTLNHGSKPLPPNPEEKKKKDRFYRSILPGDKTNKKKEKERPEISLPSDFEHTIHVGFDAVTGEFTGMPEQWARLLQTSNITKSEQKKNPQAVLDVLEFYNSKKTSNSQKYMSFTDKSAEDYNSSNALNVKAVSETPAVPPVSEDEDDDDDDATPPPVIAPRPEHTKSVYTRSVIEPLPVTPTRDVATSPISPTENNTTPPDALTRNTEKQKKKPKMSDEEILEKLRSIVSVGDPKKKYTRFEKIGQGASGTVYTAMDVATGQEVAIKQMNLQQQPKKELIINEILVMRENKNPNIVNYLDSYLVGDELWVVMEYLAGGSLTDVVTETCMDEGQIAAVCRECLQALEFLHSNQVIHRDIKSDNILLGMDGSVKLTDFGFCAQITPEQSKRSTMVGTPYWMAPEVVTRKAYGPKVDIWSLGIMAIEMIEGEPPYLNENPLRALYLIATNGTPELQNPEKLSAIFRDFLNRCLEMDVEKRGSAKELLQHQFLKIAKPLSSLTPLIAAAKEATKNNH

[20] = biological target: Protein kinase C delta type (Homo sapiens) (UniProt Q05655); test: Inhibition of human PRKCD assessed as percent of control at 2000 nM by KINOMEscan assay relative to control
[21] = biological target: Receptor-interacting serine/threonine-protein kinase 1 (Homo sapiens) (UniProt Q13546); test: Inhibition of human RIPK1 assessed as percent of control at 2000 nM by KINOMEscan assay relative to control
Chain of Receptor-interacting serine/threonine-protein kinase 1 (Homo sapiens) (Q13546 whole entry, canonical isoform): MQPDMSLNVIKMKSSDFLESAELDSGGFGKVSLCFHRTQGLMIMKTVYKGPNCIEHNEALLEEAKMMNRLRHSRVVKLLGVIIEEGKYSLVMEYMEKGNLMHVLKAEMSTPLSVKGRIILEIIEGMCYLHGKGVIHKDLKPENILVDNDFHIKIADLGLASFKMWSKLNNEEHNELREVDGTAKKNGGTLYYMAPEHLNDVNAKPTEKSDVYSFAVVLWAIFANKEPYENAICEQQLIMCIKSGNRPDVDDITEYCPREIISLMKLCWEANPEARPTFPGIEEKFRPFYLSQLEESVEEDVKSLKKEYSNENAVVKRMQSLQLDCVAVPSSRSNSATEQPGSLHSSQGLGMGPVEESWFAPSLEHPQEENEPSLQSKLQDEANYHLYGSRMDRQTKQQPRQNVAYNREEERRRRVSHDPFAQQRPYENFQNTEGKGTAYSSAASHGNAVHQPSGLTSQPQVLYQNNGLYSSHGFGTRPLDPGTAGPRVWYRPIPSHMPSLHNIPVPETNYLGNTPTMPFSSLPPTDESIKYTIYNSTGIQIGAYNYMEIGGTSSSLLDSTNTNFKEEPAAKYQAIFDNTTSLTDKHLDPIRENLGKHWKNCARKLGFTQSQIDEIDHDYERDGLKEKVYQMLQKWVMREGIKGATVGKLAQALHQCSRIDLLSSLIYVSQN

[22] = system: Phosphatidylinositol 4,5-bisphosphate 3-kinase catalytic subunit alpha isoform (Homo sapiens), P42336 [Q546K]; test: Inhibition of human PIK3CA Q546K mutant assessed as percent of control at 2000 nM by KINOMEscan assay relative to control
[23] = biological target: Mitotic checkpoint serine/threonine-protein kinase BUB1 (Homo sapiens) (UniProt O43683); test: Inhibition of human BUB1 assessed as percent of control at 2000 nM by KINOMEscan assay relative to control
[24] = biological target: Cyclin-dependent kinase 4/cyclin D1 (Homo sapiens) (UniProt P11802+P24385); test: Inhibition of human CDK4/cyclin D1 assessed as percent of control at 2000 nM by KINOMEscan assay relative to control; type: protein-complex assay
[25] = biological target: Mitogen-activated protein kinase kinase kinase 9 (Homo sapiens) (UniProt P80192); test: Inhibition of human MLK1 assessed as percent of control at 2000 nM by KINOMEscan assay relative to control
Chain of Mitogen-activated protein kinase kinase kinase 9 (Homo sapiens) (P80192 whole entry, looked up): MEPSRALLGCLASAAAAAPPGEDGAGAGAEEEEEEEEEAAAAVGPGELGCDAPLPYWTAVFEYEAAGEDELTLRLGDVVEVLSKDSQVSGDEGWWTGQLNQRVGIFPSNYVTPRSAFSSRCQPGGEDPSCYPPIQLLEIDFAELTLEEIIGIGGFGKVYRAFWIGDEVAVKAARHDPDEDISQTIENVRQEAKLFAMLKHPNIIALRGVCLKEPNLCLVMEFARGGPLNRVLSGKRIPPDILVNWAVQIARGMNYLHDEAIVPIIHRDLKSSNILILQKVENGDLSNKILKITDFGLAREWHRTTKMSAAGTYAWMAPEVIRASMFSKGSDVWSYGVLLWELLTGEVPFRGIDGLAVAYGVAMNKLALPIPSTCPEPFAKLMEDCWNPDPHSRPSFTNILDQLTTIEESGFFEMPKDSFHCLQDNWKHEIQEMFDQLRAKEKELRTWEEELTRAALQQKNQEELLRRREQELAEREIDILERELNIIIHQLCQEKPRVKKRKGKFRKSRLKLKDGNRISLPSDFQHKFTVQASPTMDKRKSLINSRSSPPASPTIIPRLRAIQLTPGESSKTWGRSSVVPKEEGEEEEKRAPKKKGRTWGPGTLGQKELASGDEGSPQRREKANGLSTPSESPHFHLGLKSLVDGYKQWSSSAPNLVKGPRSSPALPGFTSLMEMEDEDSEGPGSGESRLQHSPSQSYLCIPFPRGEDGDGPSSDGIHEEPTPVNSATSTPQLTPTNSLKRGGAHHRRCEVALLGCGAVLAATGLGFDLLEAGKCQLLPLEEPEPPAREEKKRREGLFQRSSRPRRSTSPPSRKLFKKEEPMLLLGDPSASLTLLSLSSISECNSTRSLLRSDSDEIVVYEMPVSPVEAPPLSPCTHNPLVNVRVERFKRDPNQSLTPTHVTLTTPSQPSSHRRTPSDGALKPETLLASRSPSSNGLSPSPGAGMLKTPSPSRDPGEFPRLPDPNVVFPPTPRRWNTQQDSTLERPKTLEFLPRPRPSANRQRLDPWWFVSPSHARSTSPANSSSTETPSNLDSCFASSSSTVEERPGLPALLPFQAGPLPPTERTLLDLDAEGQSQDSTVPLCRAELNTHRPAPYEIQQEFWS

[26] = biological target: Serine/threonine-protein kinase MRCK alpha (Homo sapiens) (UniProt Q5VT25); test: Inhibition of human MRCKA assessed as percent of control at 2000 nM by KINOMEscan assay relative to control
[27] = biological target: Tyrosine-protein kinase Fgr (Homo sapiens) (UniProt P09769); test: Inhibition of human FGR assessed as percent of control at 2000 nM by KINOMEscan assay relative to control
[28] = system: Receptor-type tyrosine-protein kinase FLT3 (Homo sapiens), P36888 [N841I]; test: Inhibition of human FLT3 N841I mutant assessed as percent of control at 2000 nM by KINOMEscan assay relative to control
[29] = biological target: RAF proto-oncogene serine/threonine-protein kinase (Homo sapiens) (UniProt P04049); test: Inhibition of human RAF1 assessed as percent of control at 2000 nM by KINOMEscan assay relative to control
[30] = biological target: Phosphatidylinositol 4-kinase beta (Homo sapiens) (UniProt Q9UBF8); test: Inhibition of human PIK4CB assessed as percent of control at 2000 nM by KINOMEscan assay relative to control
Chain of Phosphatidylinositol 4-kinase beta (Homo sapiens) (Q9UBF8 2-816 limits assumed): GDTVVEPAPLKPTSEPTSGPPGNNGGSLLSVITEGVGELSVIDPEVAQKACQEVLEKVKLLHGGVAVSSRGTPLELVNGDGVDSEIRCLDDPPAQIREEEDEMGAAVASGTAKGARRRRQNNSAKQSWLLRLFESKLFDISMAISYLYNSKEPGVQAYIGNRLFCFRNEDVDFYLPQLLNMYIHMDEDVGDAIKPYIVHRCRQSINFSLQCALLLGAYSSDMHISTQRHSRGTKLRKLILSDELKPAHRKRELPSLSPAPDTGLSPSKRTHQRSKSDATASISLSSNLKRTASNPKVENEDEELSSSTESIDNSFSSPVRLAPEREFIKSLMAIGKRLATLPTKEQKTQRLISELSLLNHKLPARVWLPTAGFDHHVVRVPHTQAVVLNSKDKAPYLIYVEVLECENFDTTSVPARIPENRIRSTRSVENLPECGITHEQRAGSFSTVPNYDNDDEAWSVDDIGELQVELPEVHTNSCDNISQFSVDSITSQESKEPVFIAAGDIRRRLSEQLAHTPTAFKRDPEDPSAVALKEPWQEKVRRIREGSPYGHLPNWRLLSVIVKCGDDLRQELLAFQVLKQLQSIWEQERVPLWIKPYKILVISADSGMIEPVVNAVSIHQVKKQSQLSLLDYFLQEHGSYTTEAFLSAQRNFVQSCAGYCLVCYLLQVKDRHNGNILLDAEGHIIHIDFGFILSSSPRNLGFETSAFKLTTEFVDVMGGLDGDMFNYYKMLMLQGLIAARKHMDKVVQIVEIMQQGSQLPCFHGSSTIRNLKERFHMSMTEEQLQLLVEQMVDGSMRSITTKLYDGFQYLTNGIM

CN(C)C(=O)c1ccc(N2CCCN(c3ccnc4sc(C(N)=O)c(N)c34)CC2)cc1
Activity [1]: 100% and 95% | Activity [2]: 87% and 100% | Activity [3]: 100% and 83% | Activity [4]: 88% and 100% | Activity [5]: 93% and 79% | Activity [6]: 98% and 100% | Activity [7]: 93% and 86% | Activity [8]: 95% and 82% | Activity [9]: 75% and 100% | Activity [10]: 90% and 76% | Activity [11]: 95% and 100% | Activity [12]: 73% and 71% | Activity [13]: 89% and 78% | Activity [14]: 100% and 88% | Activity [15]: 92% and 100% | Activity [16]: 83% and 95% | Activity [17]: 83% and 100% | Activity [18]: 68% and 67% | Activity [19]: 96% and 92% | Activity [20]: 100% and 92% | Activity [21]: 99% and 100% | Activity [22]: 66% and 72% | Activity [23]: 88% and 80% | Activity [24]: 94% and 96% | Activity [25]: 95% and 92% | Activity [26]: 94% and 100% | Activity [27]: 100% | Activity [28]: 90% and 86% | Activity [29]: 97% and 100% | Activity [30]: 65% | Activity ([30]; INHIBITOR): 33%
